Data as given in patent US20260297042A1, “BIARYLAMIDE DERIVATIVES AND THEIR USE AS PKMYT1 INHIBITORS” (CANCER RESEARCH TECHNOLOGY LIMITED, priority 2023, published 2026).

Legend:
[1] = system: KYSE-30 cells; assay: Cancer cell line proliferation assay, nuclear count, KYSE-30 (normal CCNE1); format: cell-based; conditions: Homo sapiens, normal CCNE1 expression, banded, read-out: KYSE30 GI50
Procedure: (§1) h-TERT-RPE1 TP53−/− and CCNE1 high expressing clones (clone cell lines 7 and 15) were treated with test compounds dissolved in DMSO at serially diluted concentrations alongside a DMSO only control for around 6 population doublings time. Cells were then fixed with 4% Paraformaldehyde and the cell nuclei were stained with DAPI (Sigma D9542). Images covering each well were acquired by an Opera Phenix® High-Content Screening System (PerkinElmer). Image analysis was performed using Harmony® high-content analysis software (PerkinElmer). Data analysis was performed using Microsoft Excel® and GI50 estimates generated with GraphPad Prism v9. Percent nuclear count was compared to vehicle control wells and used to measure inhibition of proliferation.
(§2) Cancer cell lines with either normal (KYSE-30) or amplified CCNE1 expression (OVCAR3-ovarian cancer) were evaluated for their sensitivity to PKMYT1 inhibitors in a nuclear count assay as described above for h-TERT-RPE1 TP53−/− and a CCNE1 high expressing clones, taking into account the slower cell cycle division times of these lines.

[2] = biological target: T1, Cellular PKMYT1 Biomarker CDK1 pT14 (Homo sapiens, UniProt Q99640); assay: Inhibition of cellular PKMYT1 biomarker CDK1 pT14 in OVCAR 3 cells (immunoblot); format: cell-based; conditions: 20 hours incubation
T1 construct: read-out CDK1 phospho-T14 immunoblot
T1 sequence (Q99640 1-499): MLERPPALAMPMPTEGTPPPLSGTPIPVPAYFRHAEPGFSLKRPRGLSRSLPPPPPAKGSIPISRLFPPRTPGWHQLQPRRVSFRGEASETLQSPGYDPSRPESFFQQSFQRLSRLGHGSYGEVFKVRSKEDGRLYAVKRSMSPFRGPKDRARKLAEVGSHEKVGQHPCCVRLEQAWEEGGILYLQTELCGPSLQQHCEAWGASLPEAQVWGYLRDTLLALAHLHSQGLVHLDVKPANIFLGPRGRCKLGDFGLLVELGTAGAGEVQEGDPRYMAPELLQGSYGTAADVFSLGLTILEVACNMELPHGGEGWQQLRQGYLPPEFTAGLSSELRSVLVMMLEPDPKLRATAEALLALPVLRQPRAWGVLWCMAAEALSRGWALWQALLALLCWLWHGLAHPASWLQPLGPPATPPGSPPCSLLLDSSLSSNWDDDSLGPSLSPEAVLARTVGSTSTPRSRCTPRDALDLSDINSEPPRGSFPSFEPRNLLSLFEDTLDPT
Outline: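 Confluent OVCAR 3 cells treated with a compound concentration range for 20 h at 37 °C. Lysates analysed by automated capillary immunoblot for CDK1 phospho-T14, with vinculin, fluorescence detection; IC50 by regression.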

[3] = system: OVCAR3 cells; assay: Cancer cell line proliferation assay, nuclear count, OVCAR3 (CCNE1-amplified); format: cell-based; conditions: banded; for Selectivity ratio KYSE30 GI50 vs. OVCAR3 GI50: >N = at least in this band; for GI50: Homo sapiens, OVCAR-3, CCNE1-amplified ovarian cancer, nuclear count
Procedure: as §1, §2

[4] = biological target: T2, WEE1 (Homo sapiens, UniProt P30291); assay: Selectivity versus WEE1 assay (ADP-Glo enzymatic assay); format: biochemical; conditions: banded; for IC50: ADP-Glo, 15 nM WEE1, 60 minutes at 26° C.; for PKMYT1 vs. WEE1 selectivity: fold difference in selectivity for PKMYT1 over WEE1, ">N" = at least in this band but could be higher
T2 construct: purchased Thermo Fisher PR7373A
Outline: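 Compounds were pre-dispensed, enzyme (15 nM final) was added in pH 7.5 HEPES buffer, and ATP ([…]) then started a 60 min incubation at 26° C. Afterwards ADP-Glo reagents were added in turn and luminescence was measured to derive IC50 values.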

[5] = biological target: T3, Human PKMYT1 (Homo sapiens, UniProt Q99640); assay: PKMYT1 biochemical ADP-Glo enzymatic assay; conditions: ADP-Glo; 15 nM PKMYT1 kinase domain, 500 µM ATP, 60 minutes at 26° C.; banded
T3 construct: Human PKMYT1 75-362 was cloned as a TEV cleavable 6xHis fusion; 6xHis (TEV cleavable) (cleaved yes); made in house; host or cells: bacterial cells
T3 sequence (Q99640 75-362): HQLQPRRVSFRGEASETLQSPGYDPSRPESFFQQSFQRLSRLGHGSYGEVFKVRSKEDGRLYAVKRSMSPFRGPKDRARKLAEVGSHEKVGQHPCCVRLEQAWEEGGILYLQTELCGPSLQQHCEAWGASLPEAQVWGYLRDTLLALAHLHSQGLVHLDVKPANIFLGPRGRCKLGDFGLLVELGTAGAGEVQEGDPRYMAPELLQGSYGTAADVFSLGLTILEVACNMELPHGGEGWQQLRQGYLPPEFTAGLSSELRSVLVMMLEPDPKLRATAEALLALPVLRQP
Outline: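 Compounds were titrated over 10 points (3-fold steps), then 15 nM purified PKMYT1 kinase domain (aa 75-362) and 500 µM ATP were added in pH 7.5 HEPES buffer. After 60 min at 26 °C, remaining ATP was depleted and ADP converted to luminescence for IC50 fitting.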

[6] = system: h-TERT-RPE1 TP53−/− CCNE1 high expressing clone cell line 15 (CL15); assay: Nuclear count cell proliferation assay, CCNE1 high expressing clone cell line 15 (CL15) of h-TERT-RPE1 TP53−/−; format: cell-based; conditions: banded; for Selectivity Ratio Wt vs. CL15: GI50 ratio RPE Wt vs. CL15, >N = at least in this band; for GI50: h-TERT-RPE1 TP53−/− CCNE1 high clone CL15, nuclear count, around 6 population doublings, read-out: RPE CL15 GI50
Procedure: as §1

[7] = system: h-TERT-RPE1 TP53−/− parental cells; assay: Nuclear count cell proliferation assay, parental (wild type) h-TERT-RPE1 TP53−/− cells; format: cell-based; conditions: hTERT-RPE1, h-TERT-RPE1 TP53−/− parental (Wt), around 6 population doublings, banded, read-out: RPE Wt GI50
Procedure: as §1

[8] = system: h-TERT-RPE1 TP53−/− CCNE1 high expressing clone cell line 7 (CL7); assay: Nuclear count cell proliferation assay, CCNE1 high expressing clone cell line 7 (CL7) of h-TERT-RPE1 TP53−/−; format: cell-based; conditions: banded; for Selectivity Ratio Wt vs. CL7: GI50 ratio RPE Wt vs. CL7, >N = at least in this band; for GI50: hTERT-RPE1, h-TERT-RPE1 TP53−/− CCNE1 high clone CL7, nuclear count, around 6 population doublings, read-out: RPE CL7 GI50
Procedure: as §1

[9] = system: OVCAR 3 cells; assay: Cancer cell line proliferation assay, ATP-based cell viability (Cell Titre Glow), OVCAR 3 (CCNE1-amplified); conditions: KYSE30 (normal CCNE1) GI50 vs. OVCAR 3 (CCNE1-amplified) GI50
Outline: (§3)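 CellTiter-Glo luminescence endpoint; PKMYT1 inhibitor exposure; GI50 = conc. for 50% growth inhibition, curve-fitted.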

[10] = system: KYSE-30 cells; assay: Cancer cell line proliferation assay, ATP-based cell viability (Cell Titre Glow), KYSE-30 (normal CCNE1); conditions: Homo sapiens, KYSE-30 cells (normal CCNE1), concentration that achieves 50% cell growth proliferation inhibition, read-out: KYSE30 Gl50
Outline: as §3

[11] = system: breast and ovarian cancers overexpressing CCNE1; conditions: alone or in combination with Gemcitabine; Gallo et al., 2022; cited from earlier work
[12] = system: pancreatic PDX model with increased expression of CCNE1; conditions: alone or in combination with Gemcitabine; Gallo et al., 2022; cited from earlier work
[13] = system: solid tumours; conditions: clinicaltrials.gov; cited from earlier work

T2 sequence (P30291 whole entry): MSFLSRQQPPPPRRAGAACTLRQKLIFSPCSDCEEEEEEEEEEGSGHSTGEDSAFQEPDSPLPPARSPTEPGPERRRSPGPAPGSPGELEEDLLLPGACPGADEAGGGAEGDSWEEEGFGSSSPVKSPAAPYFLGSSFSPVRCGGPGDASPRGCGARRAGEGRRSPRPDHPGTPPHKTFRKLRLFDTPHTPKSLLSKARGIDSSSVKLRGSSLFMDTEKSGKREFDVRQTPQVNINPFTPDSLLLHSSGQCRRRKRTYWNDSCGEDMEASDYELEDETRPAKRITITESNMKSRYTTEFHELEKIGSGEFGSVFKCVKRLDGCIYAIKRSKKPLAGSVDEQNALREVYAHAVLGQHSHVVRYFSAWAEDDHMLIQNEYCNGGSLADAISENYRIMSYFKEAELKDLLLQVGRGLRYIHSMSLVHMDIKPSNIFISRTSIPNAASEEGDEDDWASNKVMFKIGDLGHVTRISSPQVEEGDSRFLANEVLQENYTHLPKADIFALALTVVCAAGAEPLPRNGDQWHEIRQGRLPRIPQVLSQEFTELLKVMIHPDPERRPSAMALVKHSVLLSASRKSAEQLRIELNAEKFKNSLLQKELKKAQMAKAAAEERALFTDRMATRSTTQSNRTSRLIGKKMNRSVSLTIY

| SMILES | GI50 [1] | IC50 [2] | Selectivity ratio KYSE30 GI50 vs. OVCAR3 GI50 [3] | GI50 [3] | IC50 [4] | PKMYT1 vs. WEE1 selectivity [4] | IC50 [5] | Selectivity Ratio Wt vs. CL15 [6] | GI50 [6] | GI50 [7] | Selectivity Ratio Wt vs. CL7 [8] | GI50 [8] | Selectivity ratio KYSE30 Gl50 vs. OVCAR3 Gl50 [9] | GI50 [10] | efficacy in vivo [11] | efficacy in vivo [12] | toxicity in clinical trials [13] |
| --- | --- | --- | --- | --- | --- | --- | --- | --- | --- | --- | --- | --- | --- | --- | --- | --- | --- |
| Cc1ccc(O)c(C)c1NC(=O)c1cnc(Nc2cc(C(F)(F)F)n(C)n2)s1 [BAA-047] | 3 to 10 µM | 100 to 1000 nM | X (3-<10 fold) | 500 to 3000 nM | > 11 µM | >X (100-<1000 fold) | 50 to 1000 nM |  |  |  |  |  |  |  |  |  |  |
| Cc1ccc(O)c(C)c1NC(=O)c1cnc(Nc2ccn(CC(=O)N3CCCC3)n2)s1 [BAA-148, N-(3-hydroxy-2,6-dimethyl-phenyl)-2-[[1-(2-oxo-2-pyrrolidin-1-yl-ethyl)pyrazol-3-yl]amino]thiazole-5-carboxamide] | > 10 µM |  | X (3-<10 fold) | 3000 to 10000 nM | > 11 µM | Y (1000-5000 fold) | < 50 nM | X (3-<10 fold) | 500 to 3000 nM | 500 to 3000 nM |  |  |  |  |  |  |  |
| CCN(CC)C(=O)Cn1ccc(Nc2ncc(C(=O)Nc3c(C)ccc(O)c3C)s2)n1 [BAA-173, 2-[[1-[2-(diethylamino)-2-oxo-ethyl]pyrazol-3-yl]amino]-N-(3-hydroxy-2,6-dimethyl-phenyl)thiazole-5-carboxamide] | > 10 µM |  | >X (3-<10 fold) | 3000 to 10000 nM | > 11 µM | Y (1000-5000 fold) | < 50 nM |  |  | 500 to 3000 nM | X (3-<10 fold) | < 500 nM |  |  |  |  |  |
| Cc1ccc(O)c(C)c1NC(=O)c1cnc(Nc2ccn(CC(=O)N3CCN(C(=O)OC(C)(C)C)C(C)(C)C3)n2)s1 [BAA-179, tert-butyl 4-[2-[3-[[5-[(3-hydroxy-2,6-dimethyl-phenyl)carbamoyl]thiazol-2-yl]amino]pyrazol-1-yl]acetyl]-2,2-dimethyl-piperazine-1-carboxylate] | > 10 µM |  | Z (>30 fold) | < 500 nM | 1 to 11 µM | X (100-<1000 fold) | < 50 nM | Y (10-30 fold) | < 500 nM | 3000 to 10000 nM |  |  |  |  |  |  |  |
| Cc1ccc(O)c(C)c1NC(=O)c1cnc(Nc2ccn(CC(=O)N3CC(F)(F)C(F)(F)C3)n2)s1 [BAA-181, N-(3-hydroxy-2,6-dimethyl-phenyl)-2-[[1-[2-oxo-2-(3,3,4,4-tetrafluoropyrrolidin-1-yl)ethyl]pyrazol-3-yl]amino]thiazole-5-carboxamide] | > 10 µM |  | >X (3-<10 fold) | 3000 to 10000 nM | > 11 µM | Y (1000-5000 fold) | < 50 nM | Y (10-30 fold) | < 500 nM | 500 to 3000 nM | X (3-<10 fold) | < 500 nM |  |  |  |  |  |
| CCNC(=O)Cn1cc(C)c(Nc2ncc(C(=O)Nc3c(C)ccc(O)c3C)s2)n1 [BAA-206, 2-[[1-[2-(ethylamino)-2-oxo-ethyl]-4-methyl-pyrazol-3-yl]amino]-N-(3-hydroxy-2,6-dimethyl-phenyl)thiazole-5-carboxamide] | > 10 µM |  | >Y (10-30 fold) | 500 to 3000 nM | 1 to 11 µM | Y (1000-5000 fold) | < 50 nM |  |  |  |  |  |  |  |  |  |  |
| Cc1cn(CC(=O)N2CCCC2)nc1Nc1ncc(C(=O)Nc2c(C)ccc(O)c2C)s1 [BAA-208, N-(3-hydroxy-2,6-dimethyl-phenyl)-2-[[4-methyl-1-(2-oxo-2-pyrrolidin-1-yl-ethyl)pyrazol-3-yl]amino]thiazole-5-carboxamide] | > 10 µM |  | Z (>30 fold) | < 500 nM | 1 to 11 µM | X (100-<1000 fold) | < 50 nM |  |  |  |  |  | Y (>20 fold) | > 5 µM |  |  |  |
| Cc1cc2c(C(N)=O)c(N)n(-c3c(C)ccc(O)c3C)c2nc1C [RP-6306] |  |  |  |  |  |  |  |  |  |  |  |  |  |  | has shown efficacy in vivo | has shown efficacy in vivo |  |
| C=CCn1c(=O)c2cnc(Nc3ccc(N4CCN(C)CC4)cc3)nc2n1-c1cccc(C(C)(C)O)n1 [adavosertib] |  |  |  |  |  |  |  |  |  |  |  |  |  |  |  |  | presented significant toxicity |
